Assay results published in patent publication US6949356B1, “Methods for improving secondary metabolite production in fungi” (Microbia, Inc., priority 1999, dated 2005).

System: S. cerevisiae strain 22409
Assay: Lovastatin resistance test: yeast transformants spotted to SC-URA agar containing different concentrations of lovastatin (FIG. 1)
Assay type: cell-based, Saccharomyces cerevisiae
Experimental: These genes are predicted to encode proteins, denoted by Genbank accession numbers AAD34558 (hereafter referred to as PUMP1) and AAD34564 (hereby referred to as PUMP2), that are members of the MFS class of transporters. As described above, some MFS transporters are known to confer resistance to toxic compounds. PUMP1 and PUMP2 were tested for their ability to confer resistance to otherwise toxic levels of lovastatin when expressed in the fungus S. cerevisiae.
The polyA+ fraction of the A. terreus total RNA was isolated using Oligotex beads (Qiagen Inc.). Purified polyA+ RNA (5 μg) was used to generate complementary DNA (cDNA) using Superscript Reverse Transcriptase (Gibco BRL, 9800 Medical Center Drive, PO Box 6482, Rockville, Md. 20849) according to the instructions of the manufacturer. The cDNA was then used to isolate and clone PUMP1 and PUMP2 gene sequences using the polymerase chain reaction (PCR) and Gateway (Life Technologies) Cloning Technology (U.S. Pat. No. 5,888,732). Oligonucleotide sequences used for PCR were 5′-[…]-3′ (SEQ ID NO: 7) and 5′-[…]-3′ (SEQ ID NO: 8) for PUMP1. Oligonucleotide sequences used for PUMP2 PCR were 5′-[…]-3′ (SEQ ID NO: 9) and 5′-[…]-3′ (SEQ ID NO: 10). The resultant plasmids, MB1333 and MB1334, were designed to express PUMP1 and PUMP2, respectively, under control of the S. cerevisiae TEF1 promoter. The plasmids carry a functional URA3 gene to allow for selection of the plasmid on media lacking uracil in a ura3 mutant strain. These plasmids also contained a 2-micron origin for high-copy replication in yeast. […] Environ. Microbiol. 63: 33414 (1997) as pRH127-3, that expresses a soluble form of HMG CoA reductase under control of the yeast GPD1 promoter and is known to confer resistance to increased levels of lovastatin (Donald et al., Appl. Environ. Microbiol. 63: 3341-4 (1997)).
MB1333, MB1334, MB969 and MB1344 were transformed into the yeast strain 22409 (Research Genetics, USA) using standard transformation methods for S. cerevisiae (Biotechniques, 1992, 13(1): 18). Strain 22409 is derived from the S288c strain background of S. cerevisiae, and its complete genotype is as follows: MATa/α, his3Δ1/his3Δ1, leu2Δ1/leu2Δ0, ura3Δ0/ura3Δ0, LYS2/lys2Δ0, MET15/met15Δ0 pdr5::G418/PDR5. Transformants were grown overnight at 30° C. in synthetic complete media lacking uracil (SC-U) to maintain selection for the plasmid. Cultures were diluted 1:10 in sterile water, and 5 μl of each strain was spotted to SC-URA agar containing different concentrations of lovastatin as shown in FIG. 1.

CC[C@H](C)C(=O)O[C@H]1C[C@@H](C)C=C2C=C[C@H](C)[C@H](CC[C@@H]3C[C@@H](O)CC(=O)O3)[C@H]21 [lovastatin]
growth inhibition by lovastatin (positive control strain carrying MB1344 (soluble fragment of HMG CoA reductase overexpressed), highest concentration of lovastatin tested, 150 μg/ml): no obvious growth inhibition
growth inhibition by lovastatin (strain expressing PUMP2 (MB1334), lowest concentration of lovastatin tested, 50 μg/mL): growth inhibition
growth inhibition by lovastatin (strain harboring MB1333 (expressing PUMP1), highest concentration of lovastatin tested, 150 μg/ml): no obvious growth inhibition
growth inhibition by lovastatin (vector-only control strain (MB969), lowest concentration of lovastatin tested, 50 μg/mL): growth inhibition
